Data from US12084521B2, “TLR9 inhibitors to suppress inflammatory response to pathogens” (University Of Maryland, Baltimore, priority 2018, dated 2024).
“Also recorded” adds a separate entry of the source.

Tests used:
[1] = test system: TLR9 signaling; assay: ODN 1668-induced cytokine mRNA expression in BMDM (quantitative real time PCR); type: cell-based, mouse; settings: BMDM; for inhibition of TLR9 signaling (ODN 1668-induced cytokine mRNA, overall): peptide 10, 20 or 40 μM, ODN 1668 1 μM
Description: The cDNA obtained was amplified with gene-specific primers for mouse HPRT, TNFα, IL-10, IL-12-p40, or IL-6 and Fast SYBR Green™ master mix (Applied Biosystemsm) as previously described.
Mouse BMDMs were incubated in the presence of a 10, 20 or 40 μM decoy peptide for 30 minutes prior to stimulation with ODN 1668 (1 μM). […] Data represent the means±SEM of at least three independent experiments. The statistical significance of changes in cytokine mRNA was determined by a one-way ANOVA test; *p<0.001. Peptides 9R3 and 9R34 have overlapping sequences (see Table 1).
To investigate inhibition of TLR9 signaling by 9R34 analogues, the following work was performed. Mouse BMDMs were incubated in the presence of a 10, 20 or 40 μM decoy peptide for 30 minutes prior to stimulation with ODN 1668 (1 μM). Cytokine mRNA expression was measured 1 hour after ODN 1668 challenge and normalized to the expression of HPRT. See also Table 1. Data represent means±SEM of at least three independent experiments.

[2] = target: T1, MyD88 TIR (Homo sapiens, UniProt Q99836); assay: FLIM/FRET binding of Cy3-labeled peptides to Cer-fused TIR in HeLa cells
T1 construct: expressed in transfected cells; host or cells: HeLa
Procedure, shortened: (§1)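 HeLa cells transiently expressing Cerulean-fused TIR domains were exposed to Cy3-labeled peptides at various concentrations for 1 h, then fixed. Donor lifetimes came from FLIM with single/bi-exponential fits, and FRET efficiency was calculated as E=1−τDA/τD from whole-image average lifetimes.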

[3] = target: T2, TIRAP TIR (Homo sapiens, UniProt P58753); assay: as above
T2 construct: fused with TLR9 TIR or TIRAP TIR; expressed in transfected cells; host or cells: HeLa
Procedure, shortened: as §1

[4] = target: T3, TLR9 TIR (Homo sapiens, UniProt Q9NR96); assay: as above
T3 construct: expressed in transfected cells; host or cells: HeLa
T3 sequence (Q9NR96 868-1013 limits assumed): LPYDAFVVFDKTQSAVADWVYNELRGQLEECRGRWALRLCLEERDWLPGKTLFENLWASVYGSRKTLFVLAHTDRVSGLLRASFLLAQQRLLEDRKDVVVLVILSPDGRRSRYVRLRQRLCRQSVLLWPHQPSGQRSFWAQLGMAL
Procedure, shortened: as §1

[5] = peptide 10, 20 or 40 μM 30 min before ODN 1668 (1 μM), 1 hour, normalized to HPRT

T1 sequence (Q99836 159-293 limits assumed): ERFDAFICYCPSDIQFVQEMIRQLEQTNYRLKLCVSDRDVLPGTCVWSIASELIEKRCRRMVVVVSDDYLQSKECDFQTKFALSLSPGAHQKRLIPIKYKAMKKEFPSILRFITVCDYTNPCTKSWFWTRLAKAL
T2 sequence (P58753 84-213 limits assumed): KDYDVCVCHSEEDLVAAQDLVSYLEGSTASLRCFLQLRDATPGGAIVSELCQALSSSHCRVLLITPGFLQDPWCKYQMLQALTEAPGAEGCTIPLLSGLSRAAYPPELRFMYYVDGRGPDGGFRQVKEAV

Sequence: ALRLCLEERD [Peptide 9R34-ΔN]
- inhibition of TLR9 signaling (ODN 1668-induced cytokine mRNA, overall) [1]: as potent as the parent peptide; also recorded: inhibited TLR9 signaling more potently than 9R3
- interaction with MyD88 TIR (FLIM summary) [2]: did not interact
- binding to TIRAP TIR (FLIM summary) [3]: bind
- binding to TLR9 TIR (FLIM summary) [4]: bind

Sequence: RSFWAQLGMALTRD (Synthetic peptide 9R11)
- TNFα mRNA expression ([1]; peptide 10, 20 or 40 μM 30 min before ODN 1668 (1 μM), 1 hour after stimulation, normalized to HPRT): significantly suppressed
- IL-10 mRNA expression [1, 5]: significantly suppressed
- IL-12-p40 mRNA expression [1, 5]: significantly suppressed
- inhibition of TLR9 signaling (ODN 1668-induced cytokine mRNA, overall) [1]: inhibit TLR9 signaling
- interaction with MyD88 TIR (FLIM summary) [2]: interacted with the MyD88 TIR, but with a lower affinity
- binding to TIRAP TIR (FLIM summary) [3]: bind
- binding to TLR9 TIR (FLIM summary) [4]: bind
